In PubChem BioAssay AID1963844 (Molecular Pharmacology Branch, DTP, NCI, 2024):

Tested on: 422866-222-R5-J1-PDC complex spheroid viability
Assay: Anticancer human tumor 422866-222-R5-J1-PDC patient-derived pancreatic adenocarcinoma cell line growth inhibition [POLQ]
Settings: for IC50: curve of first compound; for viability, T/C: stronger effect = lower value
Outline: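 Growth inhibition in 3D: complex spheroids (tumor PDC, HUVEC, MSC) treated with POLQ inhibitor combinations; where Cmax unknown, highest tested concentration 10 microM, except SN-38 at 1 microM.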
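Also: spheroids exposed to compounds for one week before readout.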
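For viability, T/C in this document: percent of DMSO vehicle wells luminescence so 100% = untreated viability.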

Q: Which results are given for `COc1cccc2c1C(=O)c1c(O)c3c(c(O)c1C2=O)CC(O)(C(=O)CO)CC3OC1CC(N)C(O)C(C)O1` (centres undefined) + Cc1cccc(N(C)C(=O)C2C(O)CCN2c2nc(C)cc(C(F)(F)F)c2C#N)c1?
A: IC50 (second compound 0.0316 µM): 160 nM; IC50 (second compound 0.1 µM): 114 nM; IC50 (second compound 0.316 µM): 152 nM; IC50 (second compound 1 µM): 202 nM; IC50 (second compound 3.16 µM): 204 nM; IC50 (second compound 10 µM): 133 nM; viability, T/C (second compound 0.0316 µM, first compound 0.0316 µM): 67.2%; viability, T/C (second compound 0.0316 µM, first compound 0.1 µM): 56.3%; viability, T/C (second compound 0.0316 µM, first compound 0.316 µM): 41.4%; viability, T/C (second compound 0.0316 µM, first compound 1 µM): 24.5%; viability, T/C (second compound 0.0316 µM, first compound 3.16 µM): 32.9%; viability, T/C (second compound 0.0316 µM, first compound 10 µM): 30.1%; viability, T/C (second compound 0.1 µM, first compound 0.0316 µM): 66.6%; viability, T/C (second compound 0.1 µM, first compound 0.1 µM): 51.3%; viability, T/C (second compound 0.1 µM, first compound 0.316 µM): 37%; viability, T/C (second compound 0.1 µM, first compound 1 µM): 22.6%; viability, T/C (second compound 0.1 µM, first compound 3.16 µM): 27.4%; viability, T/C (second compound 0.1 µM, first compound 10 µM): 34.4%; viability, T/C (second compound 0.316 µM, first compound 0.0316 µM): 57.6%; viability, T/C (second compound 0.316 µM, first compound 0.1 µM): 56.7%; viability, T/C (second compound 0.316 µM, first compound 0.316 µM): 37.3%; viability, T/C (second compound 0.316 µM, first compound 1 µM): 25.6%; viability, T/C (second compound 0.316 µM, first compound 3.16 µM): 26.2%; viability, T/C (second compound 0.316 µM, first compound 10 µM): 36.4%; viability, T/C (second compound 1 µM, first compound 0.0316 µM): 65.5%; viability, T/C (second compound 1 µM, first compound 0.1 µM): 60.8%; viability, T/C (second compound 1 µM, first compound 0.316 µM): 42.4%; viability, T/C (second compound 1 µM, first compound 1 µM): 24.5%; viability, T/C (second compound 1 µM, first compound 3.16 µM): 28.6%; viability, T/C (second compound 1 µM, first compound 10 µM): 36.6%; viability, T/C (second compound 3.16 µM, first compound 0.0316 µM): 62.3%; viability, T/C (second compound 3.16 µM, first compound 0.1 µM): 58.5%; viability, T/C (second compound 3.16 µM, first compound 0.316 µM): 44.3%; viability, T/C (second compound 3.16 µM, first compound 1 µM): 30.1%; viability, T/C (second compound 3.16 µM, first compound 3.16 µM): 30.2%; viability, T/C (second compound 3.16 µM, first compound 10 µM): 36.2%; viability, T/C (second compound 10 µM, first compound 0.0316 µM): 68.2%; viability, T/C (second compound 10 µM, first compound 0.1 µM): 53%; viability, T/C (second compound 10 µM, first compound 0.316 µM): 40.5%; viability, T/C (second compound 10 µM, first compound 1 µM): 25.9%; viability, T/C (second compound 10 µM, first compound 3.16 µM): 24.1%; viability, T/C (second compound 10 µM, first compound 10 µM): 40.2%

Q: Which IC50 (second compound 0.0316 µM) does the source give for `CC(=O)O[C@H]1C(=O)[C@@]2(C)[C@H]([C@H](OC(=O)c3ccccc3)[C@]3(O)C[C@H](OC(=O)[C@H](O)[C@@H](NC(=O)c4ccccc4)c4ccccc4)C(C)=C1C3(C)C)[C@]1(OC(C)=O)CO[C@@H]1C[C@@H]2O` + Cc1cccc(N(C)C(=O)C2C(O)CCN2c2nc(C)cc(C(F)(F)F)c2C#N)c1 here?
A: < 9.49 nM

Q: And the IC50 (second compound 0.1 µM)?
A: > 3000 nM

Q: And the IC50 (second compound 0.316 µM)?
A: > 3000 nM

Q: And the IC50 (second compound 1 µM)?
A: < 9.49 nM

Q: And the IC50 (second compound 3.16 µM)?
A: > 3000 nM

Q: And the IC50 (second compound 10 µM)?
A: < 9.49 nM

Q: And the viability, T/C (second compound 0.0316 µM, first compound 0.00949 µM)?
A: 48.8%

Q: And the viability, T/C (second compound 0.0316 µM, first compound 0.03 µM)?
A: 47.8%

Q: What about the viability, T/C (second compound 0.0316 µM, first compound 0.0949 µM) of the same compound?
A: 44.6%

Q: What about the viability, T/C (second compound 0.0316 µM, first compound 0.3 µM) of the same compound?
A: 53%

Q: What about the viability, T/C (second compound 0.0316 µM, first compound 0.949 µM) of the same compound?
A: 52.6%

Q: And the viability, T/C (second compound 0.0316 µM, first compound 3 µM)?
A: 56%

Q: And the viability, T/C (second compound 0.1 µM, first compound 0.00949 µM)?
A: 54%

Q: What about the viability, T/C (second compound 0.1 µM, first compound 0.03 µM) of the same compound?
A: 47.9%

Q: What about the viability, T/C (second compound 0.1 µM, first compound 0.0949 µM) of the same compound?
A: 58.1%

Q: And the viability, T/C (second compound 0.1 µM, first compound 0.3 µM)?
A: 50.2%

Q: What about the viability, T/C (second compound 0.1 µM, first compound 0.949 µM) of the same compound?
A: 49.4%

Q: And the viability, T/C (second compound 0.1 µM, first compound 3 µM)?
A: 52.6%

Q: And the viability, T/C (second compound 0.316 µM, first compound 0.00949 µM)?
A: 54%

Q: What about the viability, T/C (second compound 0.316 µM, first compound 0.03 µM) of the same compound?
A: 51.9%

Q: And the viability, T/C (second compound 0.316 µM, first compound 0.0949 µM)?
A: 55.2%

Q: And the viability, T/C (second compound 0.316 µM, first compound 0.3 µM)?
A: 46.3%

Q: And the viability, T/C (second compound 0.316 µM, first compound 0.949 µM)?
A: 52.3%

Q: What about the viability, T/C (second compound 0.316 µM, first compound 3 µM) of the same compound?
A: 56.6%

Q: And the viability, T/C (second compound 1 µM, first compound 0.00949 µM)?
A: 49.8%

Q: And the viability, T/C (second compound 1 µM, first compound 0.03 µM)?
A: 41.3%

Q: And the viability, T/C (second compound 1 µM, first compound 0.0949 µM)?
A: 51.9%

Q: And the viability, T/C (second compound 1 µM, first compound 0.3 µM)?
A: 55.6%

Q: And the viability, T/C (second compound 1 µM, first compound 0.949 µM)?
A: 50.9%

Q: And the viability, T/C (second compound 1 µM, first compound 3 µM)?
A: 59.8%

Q: And the viability, T/C (second compound 3.16 µM, first compound 0.00949 µM)?
A: 57.5%

Q: What about the viability, T/C (second compound 3.16 µM, first compound 0.03 µM) of the same compound?
A: 46.9%

Q: And the viability, T/C (second compound 3.16 µM, first compound 0.0949 µM)?
A: 59.7%

Q: And the viability, T/C (second compound 3.16 µM, first compound 0.3 µM)?
A: 49.8%

Q: What about the viability, T/C (second compound 3.16 µM, first compound 0.949 µM) of the same compound?
A: 57.8%

Q: What about the viability, T/C (second compound 3.16 µM, first compound 3 µM) of the same compound?
A: 67.8%

Q: And the viability, T/C (second compound 10 µM, first compound 0.00949 µM)?
A: 47.7%

Q: What about the viability, T/C (second compound 10 µM, first compound 0.03 µM) of the same compound?
A: 48%

Q: And the viability, T/C (second compound 10 µM, first compound 0.0949 µM)?
A: 42.9%

Q: What about the viability, T/C (second compound 10 µM, first compound 0.3 µM) of the same compound?
A: 51.6%

Q: What about the viability, T/C (second compound 10 µM, first compound 0.949 µM) of the same compound?
A: 64.9%

Q: What about the viability, T/C (second compound 10 µM, first compound 3 µM) of the same compound?
A: 68.3%
